# Test results taken from patent US20070054916A1, “Aryl nitrogen-containing bicyclic compounds and methods of use” (Amgen Inc., priority 2004, published 2007).
# Tested on: production of TNF by monocytes activated with bacterial lipopolysaccharide (LPS)
# Assay: Lipopolysaccharide-activated monocyte TNF production assay
# Assay type: cell-based
# Conditions: Homo sapiens, read-out: IC50 values in the monocyte assay (LPS induced TNF release)
# Description: Lipopolysaccharide-Activated Monocyte TNF Production Assay
# Test compounds were evaluated in vitro for the ability to inhibit the production of TNF by monocytes activated with bacterial lipopolysaccharide (LPS). Fresh residual source leukocytes (a byproduct of plateletpheresis) were obtained from a local blood bank, and peripheral blood mononuclear cells (PBMCs) were isolated by density gradient centrifugation on Ficol-Paque Plus (Pharmacia). PBMCs were suspended at 2×10^6/ml in DMEM supplemented to contain 2% FCS, 10 mM, 0.3 mg/ml […], 100 U/ml penicillin G and […] streptomycin sulfate (complete media). Cells were plated into Falcon flat bottom, 96 well culture plates (200 μl/well) and cultured overnight at 37° C. and 6% CO2. Non-adherent cells were removed by washing with 200 μl/well of fresh medium. Wells containing adherent cells (˜70% monocytes) were replenished with 100 μl of fresh medium.
# Preparation of Test Compound Stock Solutions
# Test compounds were dissolved in […]. Compound stock solutions were prepared to an initial concentration of […]. Stocks were diluted initially to 20-200 μM in complete media. Nine two-fold serial dilutions of each compound were then prepared in complete medium.
# Treatment of Cells with Test Compounds and Activation of TNF Production with Lipopolysaccharide
# One hundred microliters of each test compound dilution were added to microtiter wells containing adherent monocytes and 100 μl complete medium. Monocytes were cultured with test compounds for 60 min at which time 25 μl of complete medium containing 30 ng/ml lipopolysaccharide from E. coli K532 were added to each well. Cells were cultured an additional 4 hrs. Culture supernatants were then removed and TNF presence in the supernatants was quantified using an ELISA.
# Flat bottom, 96 well Corning High Binding ELISA plates were coated overnight (4° C.) with 150 μL/well of 3 μg/ml murine anti-human TNF-α MAb (R&D Systems #MAB210). Wells were then blocked for 1 hr at room temperature with 200 μL/well of CaCl2-free ELISA buffer supplemented to contain 20 mg/ml BSA (standard ELISA buffer: […], 150 mM NaCl, 2 mM CaCl2, 0.15 mM thimerosal, pH 7.4). Plates were washed and replenished with 100 μl of test supernatants (diluted 1:3) or standards. Standards consisted of eleven 1.5-fold serial dilutions from a stock of 1 ng/ml recombinant human TNF (R&D Systems). Plates were incubated at room temperature for 1 hr on orbital shaker (300 rpm), washed and replenished with 100 μl/well of 0.5 ug/ml goat anti-human TNF-α (R&D systems #AB-210-NA) biotinylated at a 4:1 ratio. Plates were incubated for 40 min, washed and replenished with 100 μl/well of alkaline phosphatase-conjugated streptavidin (Jackson ImmunoResearch #016-050-084) at 0.02 ug/ml. Plates were incubated 30 min, washed and replenished with 200 μl/well of 1 mg/ml of p-nitrophenyl phosphate. After 30 min, plates were read at 405 nm on a Vmax plate reader.
# Standard curve data were fit to a second order polynomial and unknown TNF-α concentrations determined from their OD by solving this equation for concentration. TNF concentrations were then plotted vs. test compound concentration using a second order polynomial. This equation was then used to calculate the concentration of test compounds causing a 50% reduction in TNF production.
row,Structure (SMILES),IC50
1,"CNc1ncc2cc(-c3cc(C(=O)Nc4cc(C(F)(F)F)ccc4F)ccc3C)ccc2n1 [Example 1, N-(2-fluoro-5-(trifluoromethyl)phenyl)-4-methyl-3-(2-(methylamino)quinazolin-6-yl)benzamide]",≤ 25 µM
2,"CNc1ncc2cc(-c3cc(C(=O)Nc4ccc(Cl)c(C(F)(F)F)c4C)ccc3C)ccc2n1 [Example 3, N-(4-chloro-2-methyl-3-(trifluoromethyl)phenyl)-4-methyl-3-(2-(methylamino)-quinazolinyl)benzamide]",≤ 25 µM
3,Cc1ccc(C(=O)Nc2ccc(NC(=O)NCCN3CCOCC3)c(C(F)(F)F)c2)cc1-c1ccc2nc(N)ncc2c1 [Example 4],≤ 25 µM
4,"CCN(CC)CCNC(=O)Nc1ccc(NC(=O)c2ccc(C)c(-c3ccc4nc(N)ncc4c3)c2)cc1C(F)(F)F [Example 5, 3-(2-amino-6-quinazolinyl)-N-(4-((((2-(diethylamino)ethyl)amino)carbonyl)amino)-3-(trifluoromethyl)phenyl)-4-methylbenzamide]",≤ 25 µM
5,Cc1ccc(C(=O)Nc2cc(C(=O)NCCN3CCOCC3)cc(C(F)(F)F)c2)cc1-c1ccc2nc(N)ncc2c1 [Example 6],≤ 25 µM
6,CCN(CC)CCNC(=O)c1cc(NC(=O)c2ccc(C)c(-c3ccc4nc(N)ncc4c3)c2)cc(C(F)(F)F)c1 [Example 7],≤ 25 µM
7,Cc1ccc(C(=O)Nc2cc(C(C)(C)C)ccc2NC(=O)CN2CCOCC2)cc1-c1ccc2nc(N)ncc2c1 [Example 8],≤ 25 µM
8,"CNc1ncc2cc(-c3ccc(F)c(C(=O)Nc4cc(C(F)(F)F)ccc4N(C)CCCN(C)C)c3)ccc2n1 [Example 9, N-(2-((3-(dimethylamino)propyl)(methyl)amino)-5-(trifluoromethyl)phenyl)-2-fluoro-5-(2-(methylamino)-6-quinazolinyl)benzamide]",≤ 25 µM
9,"CNc1ncc2cc(-c3cc(C(=O)Nc4cccc(C(F)(F)F)c4C)ccc3C)ccc2n1 [Example 11, 4-methyl-3-(2-(methylamino)-6-quinazolinyl)-N-(2-methyl-3-(trifluoromethyl)phenyl)benzamide]",≤ 25 µM
10,"CNc1ncc2cc(-c3cc(C(=O)Nc4ccc(Cl)c(C(F)(F)F)c4)ccc3C)ccc2n1 [Example 12, N-(4-chloro-3-(trifluoromethyl)phenyl)-4-methyl-3-(2-(methylamino)-6-quinazolinyl)benzamide]",≤ 25 µM
11,"CNc1ncc2cc(-c3cc(C(=O)Nc4cccc(C(F)(F)F)c4)ccc3C)ccc2n1 [Example 18, 4-methyl-3-(2-(methylamino)-6-quinazolinyl)-N-(3-(trifluoromethyl)phenyl)benzamide]",≤ 25 µM
12,"Cc1ccc(C(=O)Nc2cccc(C(F)(F)F)c2F)cc1-c1ccc2nc(N)ncc2c1 [Example 19, 3-(2-amino-6-quinazolinyl)-N-(2-fluoro-3-(trifluoromethyl)phenyl)-4-methylbenzamide]",≤ 25 µM
13,"Cc1ccc(C(=O)Nc2cccc(C(F)(F)F)c2)cc1-c1ccc2nc(NCCN3CCOCC3)ncc2c1 [Example 20, 4-methyl-3-(2-((2-(4-morpholinyl)ethyl)amino)-6-quinazolinyl)-N-(3-(trifluoromethyl)phenyl)benzamide]",≤ 25 µM
14,"Cc1ccc(C(=O)Nc2cccc(C(F)(F)F)c2F)cc1-c1ccc2nc(NCCCN3CCOCC3)ncc2c1 [Example 23, N-(2-fluoro-3-(trifluoromethyl)phenyl)-4-methyl-3-(2-((3-(4-morpholinyl)propyl)amino)-6-quinazolinyl) benzamide]",≤ 25 µM
15,"COCCNc1ncc2cc(-c3cc(C(=O)Nc4cccc(C(F)(F)F)c4F)ccc3C)ccc2n1 [Example 24, N-(2-fluoro-3-(trifluoromethyl)phenyl)-4-methyl-3-(2-((2-(methyloxy)ethyl)amino)-6-quinazolinyl) benzamide]",≤ 25 µM
16,Cc1ccc(C(=O)Nc2cccc(C(F)(F)F)c2F)cc1-c1ccc2nc(NC3CCN(C)CC3)ncc2c1 [Example 25],≤ 25 µM
17,"Cc1ccc(C(=O)Nc2cccc(C(F)(F)F)c2F)cc1-c1ccc2nc(NCCN3CCCC3)ncc2c1 [Example 26, N-(2-fluoro-3-(trifluoromethyl)phenyl)-4-methyl-3-(2-((2-(1-pyrrolidinyl)ethyl)amino)-6-quinazolinyl) benzamide]",≤ 25 µM
18,"Cc1ccc(C(=O)Nc2cccc(C(F)(F)F)c2C)cc1-c1ccc2nc(NCCN3CCOCC3)ncc2c1 [Example 28, 4-methyl-N-(2-methyl-3-(trifluoromethyl)phenyl)-3-(2-((2-(4-morpholinyl)ethyl)amino)-6-quinazolinyl) benzamide]",≤ 25 µM
19,"Cc1ccc(C(=O)Nc2cccc(C(F)(F)F)c2)cc1-c1ccc2nc(NC3CC3)ncc2c1 [Example 29, 3-(2-(cyclopropylamino)-6-quinazolinyl)-4-methyl-N-(3-(trifluoromethyl)phenyl)benzamide]",≤ 25 µM
20,"Cc1ccc(C(=O)Nc2cccc(C(F)(F)F)c2F)cc1-c1ccc2nc(Nc3ccc(N4CCN(C)CC4)cc3)ncc2c1 [Example 30, N-(2-fluoro-3-(trifluoromethyl)phenyl)-4-methyl-3-(2-((4-(4-methyl-1-piperazinyl)phenyl)amino)-6-quinazolinyl) benzamide]",≤ 25 µM
21,"Cc1ccc(C(=O)Nc2cccc(C(F)(F)F)c2F)cc1-c1ccc2nc(Nc3ccc(OCCCN4CCCCC4)cc3)ncc2c1 [Example 31, N-(2-fluoro-3-(trifluoromethyl)phenyl)-4-methyl-3-(2-((4-((3-(1-piperidinyl)propyl)oxy)phenyl)amino)-6-quinazotinyl) benzamide]",≤ 25 µM
22,"Cc1ccc(C(=O)Nc2cccc(C(F)(F)F)c2C)cc1-c1ccc2nc(NCCCN3CCOCC3)ncc2c1 [Example 32, 4-methyl-N-(2-methyl-3-(trifluoromethyl)phenyl)-3-(2-((3-(4-morpholinyl)propyl)amino)-6-quinazolinyl) benzamide]",≤ 25 µM
23,"Cc1ccc(C(=O)Nc2cccc(C(F)(F)F)c2C)cc1-c1ccc2nc(NCCN3CCCC3)ncc2c1 [Example 33, 4-methyl-N-(2-methyl-3-(trifluoromethyl)phenyl)-3-(2-((2-(1-pyrrolidinyl)ethyl)amino)-6-quinazolinyl) benzamide]",≤ 25 µM
24,"Cc1ccc(C(=O)Nc2cccc(C(F)(F)F)c2C)cc1-c1ccc2nc(NCCCN3CCCC3=O)ncc2c1 [Example 34, 4-methyl-N-(2-methyl-3-(trifluoromethyl)phenyl)-3-(2-((3-(2-oxo-1-pyrrolidinyl)propyl)amino)-6-quinazolinyl) benzamide]",≤ 25 µM
25,"CCN1CCC(CNc2ncc3cc(-c4cc(C(=O)Nc5cccc(C(F)(F)F)c5C)ccc4C)ccc3n2)CC1 [Example 35, 3-(2-(((1-ethyl-4-piperidinyl)methyl)amino)-6-quinazolinyl)-4-methyl-N-(2-methyl-3-(trifluoromethyl)phenyl)benzamide]",≤ 25 µM
26,"Cc1ccc(C(=O)Nc2cccc(C(F)(F)F)c2C)cc1-c1ccc2nc(NC3CCN(C)CC3)ncc2c1 [Example 36, 4-methyl-3-(2-((1-methyl-4-piperidinyl)amino)-6-quinazolinyl)-N-(2-methyl-3-(trifluoromethyl)phenyl)benzamide]",≤ 25 µM
27,"Cc1ccc(C(=O)Nc2cccc(C(F)(F)F)c2C)cc1-c1ccc2nc(NC3CC3)ncc2c1 [Example 37, 3-(2-(cyclopropylamino)-6-quinazolinyl)-4-methyl-N-(2-methyl-3-(trifluoromethyl)phenyl)benzamide]",≤ 25 µM
28,"CNc1ncc2cc(-c3cc(C(=O)Nc4cccc(C(F)(F)F)c4)c(F)cc3C)ccc2n1 [Example 38, 2-fluoro-4-methyl-5-(2-(methylamino)-6-quinazolinyl)-N-(3-(trifluoromethyl)phenyl)benzamide]",≤ 25 µM
29,"Cc1cc(F)c(C(=O)Nc2cccc(C(F)(F)F)c2)cc1-c1ccc2nc(NC3CC3)ncc2c1 [Example 39, 5-(2-(cyclopropylamino)-6-quinazolinyl)-2-fluoro-4-methyl-N-(3-(trifluoromethyl)phenyl)benzamide]",≤ 25 µM
30,"Cc1ccc(C(=O)NC2CC2)cc1-c1ccc2nc(N)ncc2c1 [Example 40, 3-(2-amino-6-quinazolinyl)-N-cyclopropyl-4-methylbenzamide]",≤ 25 µM
